One data set deals with hERG (Homo sapiens, UniProt Q12809). Description: hERG current, in vitro. The data set is classed as cell-based. As to conditions: read-out: hERG tail current IC50. As for the experimental part: Supplementary Table S6: Maj or findings in safety pharmac ology cardiovascular studies c onduc ted with ABBV- […]
Species/Strain Route of Concentrations Sex and N Results
Administration or Doses per Group […]
Anesthetized IV 1, 3, and Male No effects up to a plasma concentration dog 10 m g/ k gN=4 o f 16 .83 µg/mL on […]
aged 8-12 months • Heart rate
• Systemic vascular resistance
At 67 .23 mg/m L, an increase in heart rate and decrease in systemic vascular
Conscious IV 0, 0.3, 1, and Male No effects on blood pressure, heart dog 3 mg/kg N=5–6a rate, or ECG parameters at any dose beagle (plasma concentration of 6.53 µg/mL at (aged 8-12 months 3-m g/ k g do s e )
ECG, electrocardiogram; IC50, half maximal inhibitory concentration; IV, intravenous; QTcV, QT interval correct ed accor ding to the Van de Water formula. No animals or data were excl uded from analysis . Studies were approved by the animal use committee of Abbvie, Lake County, IL. Healthy dogs, as determined by veterinary physical examination and clinical pathology, were selected for study based on availability without explicit randomization. Conscious dog telemetry utiliz ed a Latin square design to randomize for dose order e ff ects. The same 6 dogs received all d oses. Power analysis has shown a group size of 6 can statistically detect an approximately 20 % alteration in measured parameters w ith α =0.0 5. […]

A further data set has as its system SKBR3 cells. Kind of data set: Cell viability of parental and BAK-, BAX-, BCL2L11-, PMAIP1-deficient SKBR3 cells (CellTiter-Glo). In kind it is cell-based. As to conditions: SKBR3, 24 h. As for the experimental part: Fig. 2 Apoptosis induced by ABBV-467 is mechanism based and induces cell death in MCL-1-dependent cell lines after short target engagement periods. H929 cells were treated with ABBV-467 in the presence or absence of the pan-caspase inhibitor z-VAD-fmk (50 µM) and the impact on caspase-3/7 activation (a), mitochondrial membrane potential (ΔΨm; b), and apoptosis (c) determined. Alternatively, BAK-deficient SKBR3 cells were treated with ABBV-467 for 24 h and the impact on cell viability compared with the parental cell line, determined by CellTiter-Glo. Inset depicts a western blot of BAK and BAX expression in SKBR3 cell variants using GAPDH as a loading control. Each of the 3 proteins were probed on separate blots (d). Data in (a–d) are presented as the mean ± standard error of the mean. H929 and AMO-1 cells were treated with ABBV-467 at the indicated concentrations and the impact on caspase-3/7 activation and viability (DRAQ7-positive) cells determined over time by Incucyte®. Data are presented as the mean ± standard deviation (e). H929 or AMO-1 cells were cultured in media containing 10% human serum and treated with ABBV-467 for the indicated contact times. Cells were subsequently washed 3 times with drug-free media and incubated in drug-free media for the remainder of the 24-h treatment period at 37 °C before cell viability was determined by CellTiter-Glo. Mean EC50 and EC90 values were determined from the resulting dose-response curves from at least 3 independent experiments, each assessed in quadruplicate, and depict the mean ± standard error of the mean. Presented ABBV-467 dose-response curves in H929 and AMO-1 cells were compiled from at least 3 independent experiments (f).
Supplementary Fig. S5: SKBR3 cells deficient in BAX, BAK , PM AIP 1 (gene encoding the protein NOXA),
BCL 2L 11 (gene encoding the protein BIM) were treated with ABBV-467 for 24 hours and the impact on
cell death compared to the parental cell line determined by CellTiter- Glo™.
Background: In ATP-based viability assays light output follows the ATP content of the culture.

In a further data set the target is T1, dog MCL1 (Canis lupus familiaris, UniProt Q8HYS5).
T1 construct: rhesus monkey (iso4, NM_001 1089 3 7, AA 171-327), dog (NM_001 0030 16, AA17 1- 327); made in house; host or cells: E. coli BL21(DE3)-T1R
T1 sequence (Q8HYS5 171-327): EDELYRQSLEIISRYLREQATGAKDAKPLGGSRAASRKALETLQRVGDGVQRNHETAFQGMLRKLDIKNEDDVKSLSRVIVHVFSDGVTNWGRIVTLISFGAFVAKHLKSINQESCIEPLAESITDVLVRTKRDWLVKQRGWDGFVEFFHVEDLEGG
Description: TR-FRET binding assay, MCL-1 orthologs. As to conditions: read-out: Ki, canine MCL-1. How it is done: (§1) Binding affinities for MCL-1, BCL-2, BCL-XL, BCL-W, and BCL2-A1 were determined using a time-resolved fluorescence resonance energy transfer (FRET) assay. Test compounds were serially diluted in DMSO starting at […] (20× starting concentration; 100% DMSO followed by a 1:10 dilution of the compound DMSO plate into assay buffer); 10 µL of the compound in 10% DMSO was then transferred into a 384-well plate (low-volume Corning #3673 assay plate). Glutathione S-transferase (GST)-tagged recombinant BCL-2, BCL-XL, MCL-1, BCL-W, or BCL2-A1 protein (1 nM each) were mixed with 100 nM Oregon Green™-labeled f-BAK peptide probe and 1 nM Tb-labeled anti-GST antibody were mixed. Then 10 µL of a 2× protein/probe/antibody mix was added to each well of increasing concentrations of test compound in assay buffer (20 mM potassium phosphate, pH 7.6, 50 mM NaCl, 1 mM ethylenediaminetetraacetic acid disodium salt dihydrate, 0.05% pluronic acid F-68, 1 mM DL-dithiothreitol) at room temperature (final concentrations listed in Supplementary Table S2). The samples were then mixed on a shaker for 1 min and incubated for an additional 1 h at room temperature. For each assay plate, a probe/antibody and protein/antibody/probe mixture were included as a negative and a positive control, respectively. Fluorescence was measured on the EnVision™ (Perkin Elmer) using a 340/35-nm excitation filter and 520/525- (F-Bak) and 495/510-nm (Tb-labeled anti-glutathione S-transferase [GST] antibody) emission filters. Dissociation constants were determined using Wang’s equation[35]. The time-resolved FRET assay can be performed in the presence of varying concentrations of human serum to determine apparent half-maximal inhibitory concentration after serum protein binding.
(§2) Supplementary Table S10: MCL-1 ortholog information and ABBV-467 affinity across species […]
(§3) Mouse Mus musculus Rattus Canis lupus Macaca sp.
(§4) Protein name Mcl1 Mcl1 M CL1 M CL1 […]
(§5) Amino acid sequence homology determined with NCBI BLAST (http://blast.ncbi.nlm.nih.gov). […]
In general terms: In TR-FRET formats the signal depends on donor and acceptor labels being close together.

The target of the next data set is T2, rat Mcl1 (Rattus norvegicus, UniProt Q9Z1P3).
T2 construct: made in house; host or cells: E. coli BL21(DE3)-T1R
T2 sequence (Q9Z1P3 151-307): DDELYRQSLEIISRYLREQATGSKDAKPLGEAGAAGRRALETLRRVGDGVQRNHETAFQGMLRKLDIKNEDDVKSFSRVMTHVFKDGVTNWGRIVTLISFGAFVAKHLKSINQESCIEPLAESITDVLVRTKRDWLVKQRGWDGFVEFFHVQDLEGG
Kind of data set: TR-FRET binding assay, MCL-1 orthologs. As for the experimental part:
as §1, §2, §3, §4, §5

hERG, sequence (Q12809 whole entry): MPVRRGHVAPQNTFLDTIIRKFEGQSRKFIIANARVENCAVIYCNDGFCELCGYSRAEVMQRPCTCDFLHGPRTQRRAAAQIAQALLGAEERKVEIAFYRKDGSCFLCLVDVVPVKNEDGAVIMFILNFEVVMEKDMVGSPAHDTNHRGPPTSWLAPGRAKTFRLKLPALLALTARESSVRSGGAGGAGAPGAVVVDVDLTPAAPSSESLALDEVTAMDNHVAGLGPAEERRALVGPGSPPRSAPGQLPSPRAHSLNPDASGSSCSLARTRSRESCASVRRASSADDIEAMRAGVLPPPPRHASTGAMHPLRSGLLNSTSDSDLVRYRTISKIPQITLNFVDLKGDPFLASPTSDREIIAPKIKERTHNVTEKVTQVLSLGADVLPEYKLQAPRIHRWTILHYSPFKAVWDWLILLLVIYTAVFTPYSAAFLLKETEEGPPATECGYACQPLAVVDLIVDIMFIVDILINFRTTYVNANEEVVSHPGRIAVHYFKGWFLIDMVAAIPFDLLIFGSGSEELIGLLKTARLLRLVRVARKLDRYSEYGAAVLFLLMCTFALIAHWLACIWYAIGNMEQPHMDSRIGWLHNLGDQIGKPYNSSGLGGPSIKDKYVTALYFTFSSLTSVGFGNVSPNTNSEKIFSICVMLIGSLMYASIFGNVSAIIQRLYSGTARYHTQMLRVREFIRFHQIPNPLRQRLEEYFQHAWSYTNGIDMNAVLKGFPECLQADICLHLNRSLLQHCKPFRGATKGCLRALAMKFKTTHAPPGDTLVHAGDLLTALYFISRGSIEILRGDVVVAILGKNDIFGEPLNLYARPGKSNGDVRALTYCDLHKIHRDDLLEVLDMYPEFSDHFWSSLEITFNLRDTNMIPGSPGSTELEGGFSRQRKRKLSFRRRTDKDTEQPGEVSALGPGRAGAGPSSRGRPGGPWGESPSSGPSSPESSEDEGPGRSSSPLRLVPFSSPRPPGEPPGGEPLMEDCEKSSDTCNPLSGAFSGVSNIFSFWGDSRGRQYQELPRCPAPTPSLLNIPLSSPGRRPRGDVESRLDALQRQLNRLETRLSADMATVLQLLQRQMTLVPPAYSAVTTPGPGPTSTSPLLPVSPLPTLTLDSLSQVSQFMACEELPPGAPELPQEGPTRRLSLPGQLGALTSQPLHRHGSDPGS

One may read the IC50 as the concentration that gives 50% inhibition. Usually Ki stands for a measure of affinity in units of concentration, obtained from inhibition or displacement. With `Cc1c(Cl)c2c(Cl)c(C)c1-c1c(-c3ccc(F)cc3)sc3ncnc(c13)O[C@@H](C(=O)O)Cc1cc(ccc1OCc1ccnc(-c3ccc(OC[C@H]4COCCO4)cc3)n1)OC[C@@H](CN1CCN(C)CC1)O2` [ABBV-467], on hERG, the half-inhibitory concentration (IC50) was greater than 20.3 µg/mL. Also, in the data set on SKBR3 cells, the “effect of BAK deletion on activity” value is listed as “completely inhibited” and the “effect of deletion of BAX, BIM or NOXA genes on activity” value is “did not impact activity”. Further, the Ki at dog MCL1 is less than 0.1 nM. The Ki on rat Mcl1 is less than 0.1 nM.

The values above are taken from article PMC10600239, “Selective MCL-1 inhibitor ABBV-467 is efficacious in tumor models but is associated with cardiac troponin increases in patients” (Communications Medicine, 2023).
